According to paper PMC7618453, “Calcium Competitive Inhibition of Langerin by Thiazolopyrimidinones” (Journal of Medicinal Chemistry, 2025):

Tests used:
murine langerin CRD [1] = target: T1, murine langerin CRD (Mus musculus, UniProt Q8VBX4); assay: ITC titration of inhibitors into murine langerin CRD; type: binding; settings: for Kd: ITC, 278.15 K; for Ligand efficiency (LE): based on the best affinities from both conditions (Ca2+ present/absent), Gibbs free energy / number of non-hydrogen atoms
T1 construct: Murine langerin CRD (amino acids: 191–331) was cloned; made in house; host or cells: E. coli BL21
T1 sequence (Q8VBX4 191-331): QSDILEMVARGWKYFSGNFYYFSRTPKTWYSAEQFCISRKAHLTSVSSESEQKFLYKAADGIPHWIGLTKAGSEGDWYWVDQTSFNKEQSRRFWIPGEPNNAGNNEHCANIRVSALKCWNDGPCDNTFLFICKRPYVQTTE
Method: Isothermal titration calorimetry experiments were performed using a PEAQ-ITC from Malvern or a Nano ITC from TA Instruments at 278.15 K. Langerin CRD in 25 mM MES/NaOH pH = 6.0 with 40 mM NaCl was injected in the sample cell (total volume 170–300 μL, receptor concentration 80–100 μM) of the device. The titrant was dissolved in the same buffer as the protein and added in 20 steps of 2.5 μL (first injection, 1.2 μL; total volume, 50 μL) while stirring at 350 rpm. The differential heat of each injection was measured and plotted against the molar ratio. All thermograms were integrated using NITPIC, the titration curves were fitted using SEDPHAT with error estimates using the confidence interval, and all figures were made in GUSSI.
For Ca^2+ titration, calcium chloride solutions were prepared in 25 mM MES/NaOH, 40 mM NaCl in the syringe. Langerin CRD was dialyzed against 25 mM MES/NaOH, 40 mM NaCl with 10 mM EDTA, and subsequently 25 mM MES/NaOH, 40 mM NaCl, to remove Ca^2+ before loading into the sample cell. The thermogram of Ca^2+ titration was fitted with the One-Site (independent) model. In the Ca^2+ present titration set up, the protein was in 25 mM MES/NaOH, 40 mM NaCl with 5 mM calcium chloride, and 5% DMSO in the sample cell. The ligand concentration was set to 0.1–2 mM, depending on the solubility, and dissolved in the same buffer as the protein. The raw data were fitted using either the One-Site (independent) model or the Competitive Binding model. Affinity and enthalpy data of Ca^2+ binding to langerin were extracted from the Ca^2+ titration and applied in the Competitive Binding model subsequently. In the Ca^2+ absent titration set up: ligand concentration was set to 0.1–2 mM, receptor concentration was set to 80–100 μM, both dissolved in 25 mM MES/NaOH, 40 mM NaCl with 5%DMSO. The thermogram was fitted with the one-site (independent) model.
Isothermal Titration Calorimetry (ITC)
The raw ITC data were initially processed using the default software provided by respective ITC instrument: MicroCal PEAQ-ITC Analysis Software 1.41 and Nanoanalyze Data Analysis 3.5.0. For MicroCal, the fitting model was set to One Set of Sites, with the following parameters: baseline option (time factor 5, points per injection 25), control parameter set to Fitted Offset, site value fixed at 1 and other parameters set to vary. For Nanoanalyze, blank titration files were used for area correction, fitting model set to independent, binding site n fixed at 1, and other parameters allowed to vary.
The raw data from both systems were further processed using NITPIC 2.1.0, baseline type set to Best Fit, with pre- and post-injection tail correction applied, integral significance level was adjusted based on the quality of each titration, and the outlier threshold was defined as twice of the standard deviation. The processed data were then analyzed in SEDPHAT 15.2b. For Ca2+ titration and ligand titration in the absence of Ca2+, the fitting model was set as Hetero Association A-B (Single-site model) with the global parameter log(Ka) and dHAB set as vary. For ligand titration in the presence of Ca2+, the fitting model was set as Competing B and C for A (Competitive binding model) with the global parameter log(KAC) and dHAC set as the data obtained from Ca2+ titration (4.336 and -8.2 kcal/mol), and log(KAB) and dHAB as vary. Experimental parameters for titration were defined as Titrating B into AC. Final presentation of the […]

murine langerin CRD [2] = target: T1, murine langerin CRD; assay: 43Ca NMR assay of Ca2+ binding to langerin in the presence of inhibitors; parameters: Chemical shift δ (Table S1, 43Ca NMR) / Linewidth ∆ν (Table S1, 43Ca NMR): unit not given here; settings: Ca2+ + langerin + 400 μM inhibitor, pH 6.0; for Chemical shift δ (Table S1, 43Ca NMR): free 0.175, langerin-bound 0.116; for Linewidth ∆ν (Table S1, 43Ca NMR): free 0.89, langerin only 1.94; for Integral (relative to the ligand present free state) (Table S1, 43Ca NMR): free 1, langerin only 0.147
Method: ^43Ca NMR samples contain 50 μM langerin CRD in 25 mM MES/NaOH and 40 mM NaCl, pH 6.0, with 2.5 mM ^43CaCl2 (elemental calcium enriched to 57.9%, prepared from CaCO3 by hydrolysis with conc. HClaq followed by drying under vacuum; repeated three times), 400 μM compound, and 10% D2O. The negative controls contain the same components except for the protein. The positive control has 5 mM EDTA for fully chelating 2.5 mM Ca^2+ in 25 mM MES/NaOH and 40 mM NaCl. A spectrum width between 50 and −50 ppm was chosen. NMR spectra were measured at 25 °C on a 500 MHz Bruker NEO spectrometer equipped with a BBO probe. The carrier frequency was set to 0 ppm, and spectra were recorded with a recovery delay of […] and 1024 scans. All experiments were carried out with constant concentrations, volumes, receiver gains, and numbers of averaged FIDs.
Data processing and visualization were performed using TopSpin 4.4.0 (Bruker BioSpin GmbH, Rheinstetten, Germany) and MestReNova 10.0 (Mestrelab Research, Santiago de Compostela, Spain). Spectra were processed using an exponential window function with 1.00 Hz, zero-filled to a final size of 32,768 points (from an original FID size of 3,424), and baseline-corrected using spline. Parameter extraction was performed on data fitted without a window function to ensure an unbiased representation of the spectral features. […]

murine langerin = settings: in the presence of Ca^2+; previously reported, previous screening campaign (reference number not given); read-out: previously reported affinities; cited from earlier work
[3] = Solubility assessment using 1H NMR; type: physicochemical; settings: DSS reference, titrated from DMSO stock into protein buffer
Method: The compounds were dissolved in 100 mM DMSO and titrated into the same buffer solution where the protein was stored for different essays. DSS was used as the reference with a concentration of 100 µM. The integration and chemical shift of the ligand signals were monitored as indicators of potential aggregation. The solubility of compounds 1, 2, 3 were reported elsewhere. 1
Figure S1. Solubility assessment of compound 3 and 5 using 1H NMR. Compound […]
with the expected ratio relative to DSS, indicating its solubility at 1 mM in aqueous […]
(1 picture or pasted object on this page, not shown here)

murine langerin CRD [4] = target: T1, murine langerin CRD; assay: 19F R2-filtered NMR assay with carbohydrate reporter ManNAcF3; type: binding; settings: 25 mM MES/NaOH, 40 mM NaCl, 5 mM CaCl2, pH 6.0; 50 μM protein; read-out: K D of the carbohydrate reporter
Method: ^19F-NMR and ^19F-R2-filtered NMR experiments were conducted on a Bruker UltraShield 500 MHz spectrometer at 298 K. Spectra were processed in MestReNova 12.0, and data analysis was performed with GraphPad Prism version 10.2.0 for Windows (GraphPad Software, Boston, Massachusetts, USA, www.graphpad.com). Relaxation rates R 2,obs were determined with the CPMG pulse sequence, eq shown below. T represents the relaxation time, and I 0 is the integral at a T value of 0 s. The relaxation delay d 1 was set to 2.0 s, the acquisition time t acq was set to 0.87 s, and the frequency of 180° pulses νCPMG was set to 500 Hz. I=I0e^−R2,obsT 2
The KD value of the reporter was determined in a titration experiment at five concentrations [L]T with 50 μM protein. Samples were prepared via serial dilution. The K D and the R 2,b value of the reporter molecule were derived from eq by detection of the ^19F NMR relaxation rate R 2,obs in a two-parameter fit. R 2,b represents the relaxation rate in the bound state of the ligand, and p b is the bound fraction of the ligand, while [P]T represents the concentration of the receptor. The relaxation rate of the free ligand R 2,f was measured at 0.1 mM in the absence of the receptor. […]
Due to the complex equilibrium and competition effects present in the competitive binding experiments, EC50 values were utilized to quantify the inhibition degree. […]

langerin = settings: previous results using more elaborate structures from this series (reference number not given); cited from earlier work
[5] = Ca2+-depleted protein, 25 mM MES/NaOH pH 6.0, 40 mM NaCl, 5% DMSO, read-out: K D [single-site model] (A + B ↔ AB), Ca^2+ absent
[6] = 5 mM CaCl2, 25 mM MES/NaOH pH 6.0, 40 mM NaCl, 5% DMSO, mean ± standard error of fit, read-out: K D [single-site model] (A + B↔AB), Ca^2+ present
[7] = 5 mM CaCl2, pH 6.0, 5% DMSO, competition between inhibitor and Ca2+ assumed, read-out: K D [competitive binding model] (A + B + C ↔ AB + C ↔ AC + B), Ca^2+ present

O=C(O)c1cnc2sccn2c1=O [Compound 1]
Kd (murine langerin CRD [1]; [5]): 1100 ± 300 µM
Ligand efficiency (LE) (murine langerin CRD [1]): 0.31 kcal·mol^–1·HA^–1
Chemical shift δ (Table S1, 43Ca NMR) (murine langerin CRD [2]): 0.173
Linewidth ∆ν (Table S1, 43Ca NMR) (murine langerin CRD [2]): 2.80
Integral (relative to the ligand present free state) (Table S1, 43Ca NMR) (murine langerin CRD [2]): 0.355
Kd (murine langerin): 700 µM

Cc1csc2ncc(C(=O)O)c(=O)n12 [Compound 2]
Kd (murine langerin CRD [1]; [6]): 400 ± 70 µM
Kd (murine langerin CRD [1]; [7]): 81 ± 12 µM
Kd (murine langerin CRD [1]; [5]): 19 ± 2 µM
Ligand efficiency (LE) (murine langerin CRD [1]): 0.46 kcal·mol^–1·HA^–1
Chemical shift δ (Table S1, 43Ca NMR) (murine langerin CRD [2]): 0.154
Linewidth ∆ν (Table S1, 43Ca NMR) (murine langerin CRD [2]): 1.79
Integral (relative to the ligand present free state) (Table S1, 43Ca NMR) (murine langerin CRD [2]): 0.324
Kd (murine langerin): 1200 µM

Cc1sc2ncc(C(=O)O)c(=O)n2c1C [Compound 3]
Kd (murine langerin CRD [1]; [6]): 150 ± 40 µM
Kd (murine langerin CRD [1]; [7]): 17 ± 4 µM
Kd (murine langerin CRD [1]; [5]): 53 ± 8 µM
Ligand efficiency (LE) (murine langerin CRD [1]): 0.44 kcal·mol^–1·HA^–1
Chemical shift δ (Table S1, 43Ca NMR) (murine langerin CRD [2]): 0.139
Linewidth ∆ν (Table S1, 43Ca NMR) (murine langerin CRD [2]): 1.78
Integral (relative to the ligand present free state) (Table S1, 43Ca NMR) (murine langerin CRD [2]): 0.344
Kd (murine langerin): 900 µM
solubility ([3]; aqueous protein storage buffer, aqueous buffer, kinetic from dmso stock): ≥ 1000 µM

NCCNC(=O)c1cnc2ccccn2c1=O [Compound 4, N-(2-Aminoethyl)-4-oxo-4H-pyrido[1,2-a]pyrimidine-3-carboxamide]
Kd (murine langerin CRD [1]; [6]): 8500 ± 2000 µM
Kd (murine langerin CRD [1]; [7]): 480 ± 70 µM
Kd (murine langerin CRD [1]; [5]): 200 ± 90 µM
Ligand efficiency (LE) (murine langerin CRD [1]): 0.27 kcal·mol^–1·HA^–1
Chemical shift δ (Table S1, 43Ca NMR) (murine langerin CRD [2]): 0.174
Linewidth ∆ν (Table S1, 43Ca NMR) (murine langerin CRD [2]): 1.64
Integral (relative to the ligand present free state) (Table S1, 43Ca NMR) (murine langerin CRD [2]): 0.316

O=C(O)c1cnc2ccccn2c1=O [Compound 5, 4-oxo-4H-pyrido[1,2-a]pyrimidine-3-carboxylic acid]
Solubility in aqueous buffer [3]: partial solubility

C#CCO[C@H]1O[C@H](CO)[C@@H](O)[C@H](O)[C@@H]1NC(=O)C(F)(F)F [ManNAcF3]
Kd (murine langerin CRD [4]): 28000 ± 5000 µM

O=C(NCCc1cn2c(n1)SCC2)c1cnc2sccn2c1=O [N-(2-(2,3-dihydroimidazo[2,1-b]-thiazol-6-yl)-ethyl)-5-oxo-5H-thiazolo[3,2-a]-pyrimidine-6-carboxamide]
Competition with Ca^2+ (langerin): did not show competition with Ca^2+
